In PubChem BioAssay AID1963435 (Molecular Pharmacology Branch, DTP, NCI, 2024):
Where “and” joins values, the source holds several entries; their conditions need not be identical. Equal values may be shown once.

Test system: PANC-1 complex spheroid growth, percent test/control
Experiment: Anticancer human tumor PANC-1 cell line growth inhibition [Asc];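 further: spheroids exposed to agents for 7 days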;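 on viability, T/C: percent viability relative to DMSO vehicle wells taken as 100%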
Conditions: for viability, T/C: stronger effect = lower value
Procedure, shortened: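 Spheroid model: tumor line + HUVEC + hMSC. Single agents and combinations; top conc. at/near clinical Cmax (10 microM if undetermined), half-log dilutions. DMSO stocks at 800-fold test concentration.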

## NC(=O)C(=Cn1cnc(-c2cc(C(F)(F)F)cc(C(F)(F)F)c2)n1)c1cncnc1 + CCN1C(C(=O)NC23CCC(C(=O)O)(CC2)CC3)C(c2cccc(Cl)c2F)C2(C(=O)Nc3cc(Cl)ccc32)C12CCCCC2
Curve of first compound, second compound 0.00949 µM
  IC50: > 300 nM
Curve of first compound, second compound 0.03 µM
  IC50: > 300 nM
Curve of first compound, second compound 0.0949 µM
  IC50: > 300 nM
Curve of first compound, second compound 0.3 µM
  IC50: > 300 nM
Curve of first compound, second compound 0.949 µM
  IC50: > 300 nM
Curve of first compound, second compound 3 µM
  IC50: > 300 nM
Second compound 0.00949 µM, first compound 0.000949 µM
  viability, T/C: 101%
Second compound 0.00949 µM, first compound 0.003 µM
  viability, T/C: 90.1%
Second compound 0.00949 µM, first compound 0.00949 µM
  viability, T/C: 90%
Second compound 0.00949 µM, first compound 0.03 µM
  viability, T/C: 104%
Second compound 0.00949 µM, first compound 0.0949 µM
  viability, T/C: 114%
Second compound 0.00949 µM, first compound 0.3 µM
  viability, T/C: 92.2%
Second compound 0.03 µM, first compound 0.000949 µM
  viability, T/C: 95.6%
Second compound 0.03 µM, first compound 0.003 µM
  viability, T/C: 95.5%
Second compound 0.03 µM, first compound 0.00949 µM
  viability, T/C: 98.6%
Second compound 0.03 µM, first compound 0.03 µM
  viability, T/C: 91.3%
Second compound 0.03 µM, first compound 0.0949 µM
  viability, T/C: 115%
Second compound 0.03 µM, first compound 0.3 µM
  viability, T/C: 104%
Second compound 0.0949 µM, first compound 0.000949 µM
  viability, T/C: 89.6%
Second compound 0.0949 µM, first compound 0.003 µM
  viability, T/C: 101%
Second compound 0.0949 µM, first compound 0.00949 µM
  viability, T/C: 90.1%
Second compound 0.0949 µM, first compound 0.03 µM
  viability, T/C: 92.4%
Second compound 0.0949 µM, first compound 0.0949 µM
  viability, T/C: 117%
Second compound 0.0949 µM, first compound 0.3 µM
  viability, T/C: 99.5%
Second compound 0.3 µM, first compound 0.000949 µM
  viability, T/C: 100%
Second compound 0.3 µM, first compound 0.003 µM
  viability, T/C: 89.6%
Second compound 0.3 µM, first compound 0.00949 µM
  viability, T/C: 89.1%
Second compound 0.3 µM, first compound 0.03 µM
  viability, T/C: 103%
Second compound 0.3 µM, first compound 0.0949 µM
  viability, T/C: 117%
Second compound 0.3 µM, first compound 0.3 µM
  viability, T/C: 93.8%
Second compound 0.949 µM, first compound 0.000949 µM
  viability, T/C: 97.5%
Second compound 0.949 µM, first compound 0.003 µM
  viability, T/C: 100%
Second compound 0.949 µM, first compound 0.00949 µM
  viability, T/C: 105%
Second compound 0.949 µM, first compound 0.03 µM
  viability, T/C: 99.3%
Second compound 0.949 µM, first compound 0.0949 µM
  viability, T/C: 125%
Second compound 0.949 µM, first compound 0.3 µM
  viability, T/C: 97.7%
Second compound 3 µM, first compound 0.000949 µM
  viability, T/C: 120%
Second compound 3 µM, first compound 0.003 µM
  viability, T/C: 107%
Second compound 3 µM, first compound 0.00949 µM
  viability, T/C: 113%
Second compound 3 µM, first compound 0.03 µM
  viability, T/C: 112%
Second compound 3 µM, first compound 0.0949 µM
  viability, T/C: 121%
Second compound 3 µM, first compound 0.3 µM
  viability, T/C: 96.6%

## NC1CCC(NC2CC2c2ccccc2)CC1 (centres undefined)
Compound 0.000316 µM
  viability, T/C: 98.4% and 88.6% and 107%
Compound 0.001 µM
  viability, T/C: 100% and 93.4% and 91.5%
Compound 0.00316 µM
  viability, T/C: 100% and 110% and 93.7%
Compound 0.01 µM
  viability, T/C: 98.2% and 85.6% and 90.5%
Compound 0.0316 µM
  viability, T/C: 93.5% and 101% and 93.9%
Compound 0.1 µM
  viability, T/C: 107% and 91.3% and 97.6%
Curve of compound
  IC50: > 100 nM
